Reference: patent US20250313575A1, “MACROCYCLES AS LRRK2 INHIBITORS, PHARMACEUTICAL COMPOSITIONS, AND USES THEREOF” (Merck Sharp & Dohme LLC, priority 2022, published 2025)

Molecular target: GST-tagged truncated human mutant G2019S LRRK2 (Homo sapiens (Human), UniProt Q5S007, G2019S)
Experiment: LRRK2 G2019S Km ATP LanthaScreen assay
Assay type: biochemical
Settings: G2019S LRRK2, 134 μM ATP (Km ATP), LRRKtide substrate
Procedure, shortened: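 Ten-point compound series (highest 9.99 μM in DMSO) preincubated 15 min with 1.25 nM GST-tagged truncated human LRRK2 G2019S, then 90 min reaction at ambient temperature with 134 μM ATP (Km) and fluorescein-labelled LRRKtide, pH 8.5. Phosphorylation read as 520/495 nm emission ratio via Tb-labelled antibody; IC50 from 4P logistic regression.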

Sequence of GST-tagged truncated human mutant G2019S LRRK2 (Q5S007 970-2527 G2019S): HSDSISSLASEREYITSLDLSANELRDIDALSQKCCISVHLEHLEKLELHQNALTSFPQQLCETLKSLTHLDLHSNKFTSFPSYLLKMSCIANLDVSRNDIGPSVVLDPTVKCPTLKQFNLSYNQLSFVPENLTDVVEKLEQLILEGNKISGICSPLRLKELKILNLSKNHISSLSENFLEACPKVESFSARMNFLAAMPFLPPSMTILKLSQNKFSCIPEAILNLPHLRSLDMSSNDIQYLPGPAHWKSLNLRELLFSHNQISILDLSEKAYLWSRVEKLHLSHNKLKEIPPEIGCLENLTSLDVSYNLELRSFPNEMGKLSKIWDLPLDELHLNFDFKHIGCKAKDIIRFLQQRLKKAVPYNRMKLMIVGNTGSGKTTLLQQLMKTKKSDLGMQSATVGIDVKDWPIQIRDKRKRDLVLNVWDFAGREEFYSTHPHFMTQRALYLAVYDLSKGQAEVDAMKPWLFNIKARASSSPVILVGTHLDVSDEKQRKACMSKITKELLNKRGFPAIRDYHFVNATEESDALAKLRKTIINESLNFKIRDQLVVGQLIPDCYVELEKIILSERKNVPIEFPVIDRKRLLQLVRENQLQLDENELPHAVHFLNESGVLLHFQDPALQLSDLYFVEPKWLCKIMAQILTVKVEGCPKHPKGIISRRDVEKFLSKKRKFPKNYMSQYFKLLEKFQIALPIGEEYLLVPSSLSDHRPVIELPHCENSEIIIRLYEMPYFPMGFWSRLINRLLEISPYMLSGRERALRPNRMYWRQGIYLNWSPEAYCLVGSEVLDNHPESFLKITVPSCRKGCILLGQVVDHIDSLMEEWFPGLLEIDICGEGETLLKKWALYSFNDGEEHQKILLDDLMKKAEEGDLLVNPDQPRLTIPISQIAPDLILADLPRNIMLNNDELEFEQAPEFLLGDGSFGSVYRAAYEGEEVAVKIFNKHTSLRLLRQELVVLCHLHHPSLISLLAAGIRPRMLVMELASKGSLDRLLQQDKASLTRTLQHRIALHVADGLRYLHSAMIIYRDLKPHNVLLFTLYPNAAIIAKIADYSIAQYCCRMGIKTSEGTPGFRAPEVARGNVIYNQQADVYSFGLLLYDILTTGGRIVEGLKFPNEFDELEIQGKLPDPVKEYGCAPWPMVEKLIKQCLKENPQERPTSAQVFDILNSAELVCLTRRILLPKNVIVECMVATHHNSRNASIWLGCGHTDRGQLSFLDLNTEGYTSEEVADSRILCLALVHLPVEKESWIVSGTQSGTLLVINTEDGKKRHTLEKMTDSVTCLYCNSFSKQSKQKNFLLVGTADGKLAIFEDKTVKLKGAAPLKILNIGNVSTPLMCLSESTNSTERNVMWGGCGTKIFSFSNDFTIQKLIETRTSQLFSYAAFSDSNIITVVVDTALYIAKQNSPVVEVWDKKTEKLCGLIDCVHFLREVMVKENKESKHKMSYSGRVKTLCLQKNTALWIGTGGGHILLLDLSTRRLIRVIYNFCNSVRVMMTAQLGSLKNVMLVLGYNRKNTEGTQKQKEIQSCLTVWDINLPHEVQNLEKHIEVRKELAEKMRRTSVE

Structure (SMILES)	LRRK2 pIC50
Cc1nn(C)c2c1OCC1CC[C@H]1Nc1nc(ncc1C(F)(F)F)N2 (stereo partly drawn) [Ex-2.11, (10aR,12aS)- or (10aS,12aR)-1,3-dimethyl-8-(trifluoromethyl)-3,4,10,10a,11,12,12a,13-octahydro-5,9-(azeno)cyclobuta[k]pyrazolo[4,3-b][1]oxa[4,6,10]triazacyclotridecine]	>10.09
CC(C)c1nn(C(C)(C)C#N)c2c1Nc1ncc(Cl)c(n1)N[C@@H]1COC[C@H]1CO2 [Ex-1.16, 2-((10aS,13aS)-8-chloro-3-isopropyl-10a,11,13a,14-tetrahydro-10H,13H-5,9-(azeno)furo[3,4-k]pyrazolo[3,4-b][1]oxa[4,6,10]triazacyclotridecin-1(4H)-yl)-2-methylpropanenitrile]	9.76
Cc1nn(C2CCC2)c2c1OC[C@H]1CN(C[C@@H]1C)c1nc(ncc1C(F)(F)F)N2 (single isomer, unassigned) [Ex-20.1, (6S,7S)- or (6R,7R)-1-Cyclobutyl-3,7-dimethyl-11-(trifluoromethyl)-1,5,6,7,8,15-hexahydro-10,14-(azeno)-6,9-methanopyrazolo[4,3-b][1]oxa[4,6,10]triazacyclotetradecine]	5.84
CCOC(=O)[C@@H]1C[C@@H]1c1nn(C(C)C)c2c1OC[C@@H]1COC[C@H]1Nc1nc(ncc1C(F)(F)F)N2 [Ex-2.47, ethyl (1R,2S)- or ethyl (1S,2R)-2-((10aS,13aS)-3-isopropyl-8-(trifluoromethyl)-3,4,10a,11,13a,14-hexahydro-10H,13H-5,9-(azeno)furo[3,4-k]pyrazolo[4,3-b][1]oxa[4,6,10]triazacyclotridecin-1-yl)cyclopropane-1-carboxylate]	>10.09
Cc1nn(C)c2c1Nc1ncc(C(F)(F)F)c(n1)NCC1(CC1)CO2 [Ex-1.23, 1′,3′-dimethyl-8′-(trifluoromethyl)-1′,4′,10′,11′-tetrahydro-13′H-spiro[cyclopropane-1,12′-[5,9](azeno)pyrazolo[3,4-b][1]oxa[4,6,10]triazacyclotridecine]]	9.47
Cc1nn(C2CCC2)c2c1OC[C@H]1CN(C3COCC3F)C[C@@H]1Nc1nc(ncc1C(F)(F)F)N2 (mixture of isomers) [Ex-3.1, (10aS,13aR)- and (10aR,13aS)-3-cyclobutyl-12-(4-fluorotetrahydrofuran-3-yl)-1-methyl-8-(trifluoromethyl)-3,4,10a,11,12,13,13a,14-octahydro-10H-5,9-(azeno)pyrazolo[4,3-b]pyrrolo[3,4-k][1]oxa[4,6,10]triazacyclotridecine]	>10.09
FC(F)(F)c1cnc2nc1N[C@@H]1COC[C@H]1COc1ncccc1N2 [Ex-15.6, (11aS,14aS)-9-(trifluoromethyl)-11a,12,14a,15-tetrahydro-5H,11H,14H6,10-(azeno)furo[3,4-k]pyrido[2,3-b][1]oxa[4,6,10]triazacyclotridecine]	9.08
Cc1nn(C2CCC2)c2c1OC[C@@H]1COC[C@H]1Nc1nc(ncc1F)N2 [Ex-2.66, (10aS,13aS)-3-cyclobutyl-8-fluoro-1-methyl-3,4,10a,11,13a,14-hexahydro-10H,13H-5,9-(azeno)furo[3,4-k]pyrazolo[4,3-b][1]oxa[4,6,10]triazacyclotridecine]	8.43
COC(=O)C(C)(C)n1nc(C)c2c1OCC[C@@H](C)Nc1nc(ncc1C(F)(F)F)N2 [Ex-1.5, methyl (R)-2-(3,11-dimethyl-8-(trifluoromethyl)-10,11,12,13-tetrahydro-5,9-(azeno)pyrazolo[3,4-b][1]oxa[4,6,10]triazacyclotridecin-1(4H)-yl)-2-methylpropanoate]	8.73
Cc1nn(C2CCC2)c2c1OC[C@@H]1COC[C@H]1Nc1nc(ncc1Cl)N2 [Ex-2.49, (10aS,13aS)-8-chloro-3-cyclobutyl-1-methyl-3,4,10a,11,13a,14-hexahydro-10H,13H-5,9-(azeno)furo[3,4-k]pyrazolo[4,3-b][1]oxa[4,6,10]triazacyclotridecine]	>10.09
Cc1nn(C2CCC2)c2c1OC[C@H]1COC[C@@H]1Nc1nc(ncc1C(F)(F)F)N2 (single isomer, unassigned) [Ex-2.26, (10aS,13aS)- or (10aR,13aR)-3-cyclobutyl-1-methyl-8-(trifluoromethyl)-3,4,10a,11,13a, 14-hexahydro-10H,13H-5,9-(azeno)furo[3,4-k]pyrazolo[4,3-b][1]oxa[4,6,10]triazacyclotridecine]	6.77
Cc1nn(C)c2c1OCC1(CC1)C(C)Nc1nc(ncc1C(F)(F)F)N2 (single isomer, unassigned) [Ex-2.15, (R)- or (S)-1′,3′,7′-trimethyl-10′-(trifluoromethyl)-1′,7′,8′,14′-tetrahydro-5′H-spiro[cyclopropane-1,6′-[9,13](azeno)pyrazolo[4,3-b][1]oxa[4,6,10]triazacyclotridecine]]	7.44
Cc1nn(C2CCC2)c2c1OC[C@@H]1COC[C@H]1Nc1nc(ncc1C(F)(F)F)N2 [Ex-2.28, (3aR,15aR)- or (3aS,15aS)-11-cyclobutyl-13-methyl-6-(trifluoromethyl)-2,3,3a,4,10,11,15,15a-octahydro-5,9-(azeno)furo[3,2-k]pyrazolo[4,3-b][1]oxa[4,6,10]triazacyclotridecine]	9.64
FC(F)(F)c1cnc2nc1NC1CCC1COc1c(C3CCOC3)nn(C3CCC3)c1N2 [Ex-2.63, (10aR,12aR)-3-cyclobutyl-1-((R)-(10aR,12aR)-3-cyclobutyl-1-((S)-(10aS,12aS)-3-cyclobutyl-1-((R)-(10aS,12aS)-3-cyclobutyl-1-((S)-tetrahydrofuran-3-yl)-8-(trifluoromethyl)-3,4,10,10a,11,12,12a,13-octahydro-5,9-(azeno)cyclobuta[k]pyrazolo[4,3-b][1]oxa[4,6,10]triazacyclotridecine]	>10.09
Cc1cnc2c(c1)Nc1ncc(C(F)(F)F)c(n1)N[C@@H]1COC[C@H]1CO2 [Ex-15.3, (11aS,14aS)-3-methyl-9-(trifluoromethyl)-11a,12,14a,15-tetrahydro-5H,11H,14H6,10-(azeno)furo[3,4-k]pyrido[2,3-b][1]oxa[4,6,10]triazacyclotridecine]	9.15
Cc1nn(C2CCC2)c2c1OCCC(C)Nc1nc(ncc1C(F)(F)F)N2 (single isomer, unassigned) [Ex-2.6, (R)- or (S)-1-cyclobutyl-3,7-dimethyl-10-(trifluoromethyl)-1,5,6,7,8,14-hexahydro-9,13-(azeno)pyrazolo[4,3-b][1]oxa[4,6,10]triazacyclotridecine]	9.17
Cc1nn(C2CCC2)c2c1OC[C@H]1CC[C@H]1Nc1nc(ncc1C(F)(F)F)N2 (single isomer, unassigned) [Ex-2.22, (10aR,12aS)- or (10aS,12aR)-3-cyclobutyl-1-methyl-8-(trifluoromethyl)-3,4,10,10a,11,12,12a,13-octahydro-5,9-(azeno)cyclobuta[k]pyrazolo[4,3-b][1]oxa[4,6,10]triazacyclotridecine]	5.76
Cc1nn(C)c2c1OCC[C@H](C)Nc1nc(ncc1C(F)(F)F)N2 (mixture of isomers) [Ex-2.1, (R)- and (S)-1,3,7-trimethyl-10-(trifluoromethyl)-1,5,6,7,8,14-hexahydro-9,13-(azeno)pyrazolo[4,3-b][1]oxa[4,6,10]triazacyclotridecine]	6.64
Cc1nn(C2CCC2)c2c1OC[C@@H]1CC[C@H]1Nc1nc(ncc1C(F)(F)F)N2 [Ex-2.4, (10aR,12aR)- or (10aS,12aS)-3-Cyclobutyl-1-methyl-8-(trifluoromethyl)-3,4,10,10a,11,12,12a,13-octahydro-5,9-(azeno)cyclobuta[k]pyrazolo[4,3-b][1]oxa[4,6,10]triazacyclotridecine]	6.66
FC(F)(F)c1cnc2nc1NC1CCC1COc1c(C3COC3)nn(C3CCC3)c1N2 [Ex-2.71, (10aR,12aR)- or (10aS,12aS)-3-cyclobutyl-1-(oxetan-3-yl)-8-(trifluoromethyl)-3,4,10,10a,11,12,12a,13-octahydro-5,9-(azeno)cyclobuta[k]pyrazolo[4,3-b][1]oxa[4,6,10]triazacyclotridecine]	8.24
Cc1nn(C(C)C)c2c1OCCC(C)Nc1nc(ncc1C(F)(F)F)N2 (single isomer, unassigned) [Ex-2.8, (R)- or (S)-1-isopropyl-3,7-dimethyl-10-(trifluoromethyl)-1,5,6,7,8,14-hexahydro-9,13-(azeno)pyrazolo[4,3-b][1]oxa[4,6,10]triazacyclotridecine]	9.48
Cc1nn(C)c2c1OCC1CC[C@H]1Nc1nc(ncc1C(F)(F)F)N2 (stereo partly drawn) [Ex-2.10, (10aR,12aR)- or (10aS,12aS)-1,3-dimethyl-8-(trifluoromethyl)-3,4,10,10a,11,12,12a,13-octahydro-5,9-(azeno)cyclobuta[k]pyrazolo[4,3-b][1]oxa[4,6,10]triazacyclotridecine]	>10.09
Cc1nn(C2CC2(F)F)c2c1OCC1COCC1Nc1nc(ncc1C(F)(F)F)N2 [Ex-2.59, (10aS,13aS)-3-((R)-2,2-difluorocyclopropyl)-1-methyl-8-(trifluoromethyl)-3,4,10a,11,13a,14-hexahydro-10H,13H-5,9-(azeno)furo[3,4-k]pyrazolo[4,3-b][1]oxa[4,6,10]triazacyclotridecine (10aS,13aS)-3-((S)-2,2-difluorocyclopropyl)-1-methyl-8-(trifluoromethyl)-3,4,10a,11,13a, 14-hexahydro-10H,13H-5,9-(azeno)furo[3,4-k]pyrazolo[4,3-b|[1]oxa|4,6,10]triazacyclotridecine]	9.71
